Laboratory results published in patent publication US10508120B2, “TYK2 inhibitors and uses thereof” (Nimbus Lakshmi, Inc., priority 2017, dated 2019).

Experiments:
[1] = target: human TYK2 (JH2domain-pseudokinase) (Homo sapiens (Human), UniProt P29597); test: TYK2 JH2 Domain Binding Assay (KINOMEscan)
In short: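 The construct was human TYK2 G556–D888 fused to the NFkB DNA-binding domain and expressed in HEK293 cells; unpurified extract was incubated with compound and liganded beads for 1 hour at room temperature.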

Tyk2 kinase domain (DH1) = Tyk2 kinase domain (DH1) (Homo sapiens (Human), UniProt P29597); test: Tyk2 Radioactive Kinase Assay; format: biochemical; conditions: compound at 10 μM; ATP 10 μM; read-out: Tyk2 JH1% Inhibition @ 10 μM
Tyk2 kinase domain (DH1), sequence (P29597 897-1176): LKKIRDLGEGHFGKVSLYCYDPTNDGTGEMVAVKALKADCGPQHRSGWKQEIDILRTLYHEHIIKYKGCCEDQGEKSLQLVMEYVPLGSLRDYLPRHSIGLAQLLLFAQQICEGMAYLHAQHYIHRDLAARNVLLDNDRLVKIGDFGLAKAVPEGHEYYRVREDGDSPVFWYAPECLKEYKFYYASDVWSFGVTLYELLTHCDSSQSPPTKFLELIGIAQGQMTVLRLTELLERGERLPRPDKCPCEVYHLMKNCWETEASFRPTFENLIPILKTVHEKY
In short: (§1)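 Read-out is percent inhibition from a radioactive kinase reaction, measured with compound at 10 μM.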

JAK2 kinase domain (JH1) = JAK2 kinase domain (JH1) (Homo sapiens (Human), UniProt O60674); test: JAK2 Radioactive Kinase Assay; format: biochemical; conditions: compound at 10 μM; ATP 10 μM; read-out: JAK2 JH1% Inhibition @ 10 μM
JAK2 kinase domain (JH1), sequence (O60674 849-1124): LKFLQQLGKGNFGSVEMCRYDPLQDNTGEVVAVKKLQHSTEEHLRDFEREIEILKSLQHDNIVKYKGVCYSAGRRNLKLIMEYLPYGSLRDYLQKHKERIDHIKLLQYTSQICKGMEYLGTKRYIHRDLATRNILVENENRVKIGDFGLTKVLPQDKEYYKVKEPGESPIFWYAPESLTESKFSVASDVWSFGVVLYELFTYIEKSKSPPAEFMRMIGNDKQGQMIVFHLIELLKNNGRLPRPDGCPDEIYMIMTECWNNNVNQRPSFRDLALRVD
In short: as §1

[2] = target: Tyk2/JAK2 (heterodimeric complex) (Homo sapiens (Human), UniProt P29597); test: IL-12 Induced pSTAT4 in Human PBMC; format: cell-based; conditions: 1.7 ng/mL IL-12
Tyk2/JAK2 (heterodimeric complex), sequence (P29597 whole entry, other chains not shown): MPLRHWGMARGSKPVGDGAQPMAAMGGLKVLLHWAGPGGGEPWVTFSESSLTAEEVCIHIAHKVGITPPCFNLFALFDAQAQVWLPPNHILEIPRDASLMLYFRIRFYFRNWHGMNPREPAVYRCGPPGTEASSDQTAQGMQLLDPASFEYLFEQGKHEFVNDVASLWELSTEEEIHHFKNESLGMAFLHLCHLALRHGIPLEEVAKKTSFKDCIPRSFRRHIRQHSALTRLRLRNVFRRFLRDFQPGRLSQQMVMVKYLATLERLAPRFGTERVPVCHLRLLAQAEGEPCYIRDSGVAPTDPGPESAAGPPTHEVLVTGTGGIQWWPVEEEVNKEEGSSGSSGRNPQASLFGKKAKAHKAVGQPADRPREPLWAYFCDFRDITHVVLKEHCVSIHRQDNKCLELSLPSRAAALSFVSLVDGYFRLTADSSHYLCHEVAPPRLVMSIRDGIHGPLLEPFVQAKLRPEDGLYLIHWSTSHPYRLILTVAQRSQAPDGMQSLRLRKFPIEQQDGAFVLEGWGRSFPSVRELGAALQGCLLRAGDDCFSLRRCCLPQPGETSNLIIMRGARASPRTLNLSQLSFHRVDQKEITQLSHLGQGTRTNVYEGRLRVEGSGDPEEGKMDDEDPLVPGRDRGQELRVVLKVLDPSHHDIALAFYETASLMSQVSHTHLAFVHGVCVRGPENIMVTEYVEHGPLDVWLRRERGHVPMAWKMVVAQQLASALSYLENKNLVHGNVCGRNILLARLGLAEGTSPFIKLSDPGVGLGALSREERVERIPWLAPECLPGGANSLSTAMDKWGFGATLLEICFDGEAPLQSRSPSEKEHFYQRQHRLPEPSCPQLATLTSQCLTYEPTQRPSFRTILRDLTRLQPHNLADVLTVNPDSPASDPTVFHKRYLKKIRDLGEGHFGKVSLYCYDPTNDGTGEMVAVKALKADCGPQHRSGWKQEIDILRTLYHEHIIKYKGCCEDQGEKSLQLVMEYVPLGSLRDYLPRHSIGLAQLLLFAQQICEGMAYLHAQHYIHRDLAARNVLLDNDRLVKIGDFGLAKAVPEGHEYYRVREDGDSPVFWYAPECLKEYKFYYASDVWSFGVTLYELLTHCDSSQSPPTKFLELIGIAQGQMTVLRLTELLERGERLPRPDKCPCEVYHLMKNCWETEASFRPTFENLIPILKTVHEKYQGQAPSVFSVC
Excerpt: The IL-12 Induced pSTAT4 assay evaluates the inhibition of IL-12 induced STAT4 phophorylation mediated by Tyk2/JAK2 (heterodimeric complex).

[3] = target: JAK2/JAK2 homdimeric complex (Homo sapiens (Human), UniProt O60674); test: GM-CSF Induced pSTAT5 in Human PBMC; format: cell-based; conditions: GM-CSF 5 ng/mL for 20 minutes, pSTAT5 by MSD, read-out: PBMC_GMCSF_pSTAT5 IC50
JAK2/JAK2 homdimeric complex, sequence (O60674 whole entry): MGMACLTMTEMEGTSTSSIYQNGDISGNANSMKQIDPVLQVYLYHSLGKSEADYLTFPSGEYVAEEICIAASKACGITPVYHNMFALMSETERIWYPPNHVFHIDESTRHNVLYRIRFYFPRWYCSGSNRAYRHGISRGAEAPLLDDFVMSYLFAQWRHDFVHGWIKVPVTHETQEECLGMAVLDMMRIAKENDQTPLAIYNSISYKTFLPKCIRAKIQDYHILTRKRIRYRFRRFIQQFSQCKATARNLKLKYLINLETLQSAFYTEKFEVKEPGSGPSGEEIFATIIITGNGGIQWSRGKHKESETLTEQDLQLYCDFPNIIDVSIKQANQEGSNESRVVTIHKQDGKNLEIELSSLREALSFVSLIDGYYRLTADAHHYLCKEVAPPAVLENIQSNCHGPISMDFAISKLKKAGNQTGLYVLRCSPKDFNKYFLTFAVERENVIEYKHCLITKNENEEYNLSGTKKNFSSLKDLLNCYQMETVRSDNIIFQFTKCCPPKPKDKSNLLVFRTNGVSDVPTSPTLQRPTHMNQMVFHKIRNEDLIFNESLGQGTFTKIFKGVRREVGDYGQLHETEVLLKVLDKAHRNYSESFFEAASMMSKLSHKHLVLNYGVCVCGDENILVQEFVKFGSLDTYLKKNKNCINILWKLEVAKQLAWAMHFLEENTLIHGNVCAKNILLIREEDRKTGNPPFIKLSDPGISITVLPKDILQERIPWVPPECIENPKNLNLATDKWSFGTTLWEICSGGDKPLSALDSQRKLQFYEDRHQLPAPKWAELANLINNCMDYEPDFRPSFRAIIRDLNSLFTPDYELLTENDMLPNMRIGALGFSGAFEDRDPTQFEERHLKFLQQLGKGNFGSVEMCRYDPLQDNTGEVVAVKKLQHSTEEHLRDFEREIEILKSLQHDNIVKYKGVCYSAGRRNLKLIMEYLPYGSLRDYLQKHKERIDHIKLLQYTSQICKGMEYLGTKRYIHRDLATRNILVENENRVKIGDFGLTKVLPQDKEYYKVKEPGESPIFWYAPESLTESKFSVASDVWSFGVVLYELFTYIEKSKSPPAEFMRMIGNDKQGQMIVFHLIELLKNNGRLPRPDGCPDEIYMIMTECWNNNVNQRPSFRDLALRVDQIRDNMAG
JAK2/JAK2 homdimeric complex, sequence (P32927 17-897 partner): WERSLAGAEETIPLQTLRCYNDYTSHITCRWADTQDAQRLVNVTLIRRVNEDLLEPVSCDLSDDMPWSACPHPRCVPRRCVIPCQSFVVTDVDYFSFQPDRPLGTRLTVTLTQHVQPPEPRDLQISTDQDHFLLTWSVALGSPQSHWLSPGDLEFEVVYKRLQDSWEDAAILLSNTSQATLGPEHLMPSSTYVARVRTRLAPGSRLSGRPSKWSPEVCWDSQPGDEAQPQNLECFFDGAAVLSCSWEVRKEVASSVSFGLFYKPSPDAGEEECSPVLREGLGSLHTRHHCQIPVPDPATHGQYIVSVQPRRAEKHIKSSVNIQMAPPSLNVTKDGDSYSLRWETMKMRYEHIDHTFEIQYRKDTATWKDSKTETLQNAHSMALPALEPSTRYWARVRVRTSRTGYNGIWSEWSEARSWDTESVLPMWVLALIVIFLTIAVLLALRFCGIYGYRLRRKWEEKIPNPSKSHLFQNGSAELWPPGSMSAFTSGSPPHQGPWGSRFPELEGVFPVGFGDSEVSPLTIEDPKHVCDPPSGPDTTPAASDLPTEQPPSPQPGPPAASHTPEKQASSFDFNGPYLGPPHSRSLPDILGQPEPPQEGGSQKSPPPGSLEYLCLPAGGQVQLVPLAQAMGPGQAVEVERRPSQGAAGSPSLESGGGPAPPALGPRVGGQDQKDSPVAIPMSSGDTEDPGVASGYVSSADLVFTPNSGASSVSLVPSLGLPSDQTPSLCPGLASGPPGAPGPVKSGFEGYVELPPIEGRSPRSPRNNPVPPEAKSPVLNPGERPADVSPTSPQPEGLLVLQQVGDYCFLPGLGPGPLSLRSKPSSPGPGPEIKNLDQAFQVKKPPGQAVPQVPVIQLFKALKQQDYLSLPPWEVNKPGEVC

human TYK2 (JH2domain-pseudokinase), sequence (P29597 556-888): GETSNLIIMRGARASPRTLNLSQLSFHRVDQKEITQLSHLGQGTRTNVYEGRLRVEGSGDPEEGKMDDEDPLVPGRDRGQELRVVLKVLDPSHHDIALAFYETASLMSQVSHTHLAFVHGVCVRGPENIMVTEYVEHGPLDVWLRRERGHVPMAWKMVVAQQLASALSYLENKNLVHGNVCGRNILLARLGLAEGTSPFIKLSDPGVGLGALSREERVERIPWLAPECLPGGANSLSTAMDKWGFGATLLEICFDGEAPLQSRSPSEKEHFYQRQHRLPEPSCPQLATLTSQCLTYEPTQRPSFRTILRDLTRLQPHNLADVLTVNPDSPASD

Kd [1] | inhibition at 10 µM (Tyk2 kinase domain (DH1)) | inhibition at 10 µM (JAK2 kinase domain (JH1)) | IC50 [2] | IC50 [3] | SMILES
< 0.2 nM | < 50% | < 50% | < 100 nM | > 12500 nM | CNc1cc(Nc2cc(F)ccc2F)nc2c(C(=O)NC3CC3)cnn12 [I-3]
< 0.2 nM | < 50% | < 50% | < 100 nM | > 12500 nM | CNc1cc(Nc2cccnc2OC)nc2c(C(=O)NC3CCC3)cnn12 [I-4]
< 0.2 nM | < 50% | < 50% | < 100 nM | > 50000 nM | CNc1cc(Nc2cc(F)cc(F)c2F)nc2c(C(=O)NC3CC3)cnn12 [I-5]
< 0.2 nM | < 50% | < 50% | < 100 nM | > 50000 nM | CNc1cc(Nc2cc(C)cc(F)c2)nc2c(C(=O)NC3CC3)cnn12 [I-6]
< 0.2 nM | < 50% | < 50% | < 100 nM | > 12500 nM | CNc1cc(Nc2cccc(N3CCCC3=O)n2)nc2c(C(=O)NC3CC3)cnn12 [I-7]
0.2 to 1 nM | > 90% | 70 to 90% | < 100 nM | > 2500 nM | CNc1cc(Nc2cccc(-c3nccs3)c2Cl)nc2c(C(N)=O)cnn12 [I-16]
< 0.2 nM | 70 to 90% | < 50% | < 100 nM | > 2500 nM | CNc1cc(Nc2cccc(-c3cnn(C)c3)c2Cl)nc2c(C(N)=O)cnn12 [I-17]
< 0.2 nM | < 50% | < 50% | 100 to 500 nM | > 300 nM | CNc1cc(Nc2cc(C)cn(-c3cnn(C)c3)c2=O)nc2c(C(N)=O)cnn12 [I-31]
< 0.2 nM | < 50% | < 50% | < 100 nM | > 300 nM | CCn1cc(Cl)cc(Nc2cc(NC)n3ncc(C(N)=O)c3n2)c1=O [I-35]
< 0.2 nM | < 50% | < 50% | < 100 nM | > 12500 nM | CNc1cc(-c2c[nH]c3c(C)cc(C)cc23)nc2c(C(N)=O)cnn12 [I-36, 5-(5,7-dimethyl-1H-indol-3-yl)-7-(methylamino)pyrazolo[1,5-a]pyrimidine-3-carboamide]
< 0.2 nM | < 50% | < 50% | < 100 nM | > 300 nM | CNc1cc(Nc2cccc(N3CCCC3=O)n2)nc2c(C(N)=O)cnn12 [I-47]
< 0.2 nM | < 50% | < 50% | 100 to 500 nM | > 12500 nM | CNc1cc(Nc2cccnc2OC(C)C)nc2c(C(N)=O)cnn12 [I-72]
< 0.2 nM | < 50% | < 50% | < 100 nM | > 50000 nM | CNc1cc(Nc2cccc(N3CCCC3=O)n2)nc2c(C(=O)NC3CCC3)cnn12 [I-94]
< 0.2 nM | < 50% | 50 to 70% | < 100 nM | > 12500 nM | CNc1cc(Nc2cccc(N3CCOC3=O)n2)nc2c(C(=O)NC3CCC3)cnn12 [I-105]
< 0.2 nM | < 50% | < 50% | < 100 nM | > 50000 nM | CNc1cc(Nc2cccnc2OC)nc2c(C(=O)N[C@H]3C[C@H]3F)cnn12 [I-110]
< 0.2 nM | < 50% | < 50% | < 100 nM | > 12500 nM | CNc1cc(Nc2cccn(-c3ccc(F)cn3)c2=O)nc2c(C(=O)N[C@H]3C[C@H]3F)cnn12 [I-115]
< 0.2 nM | < 50% | < 50% | < 100 nM | > 2500 nM | CCOc1ccc(-n2cccc(Nc3cc(NC)n4ncc(C(=O)N[C@H]5C[C@H]5F)c4n3)c2=O)nn1 [I-117]
< 0.2 nM | < 50% | < 50% | 100 to 500 nM | > 12500 nM | CNc1cc(Nc2cccn(-c3ccc(C(=O)N4CCCC4)cn3)c2=O)nc2c(C(=O)NC3CCC3)cnn12 [I-121]

Kd [1] | inhibition at 10 µM (Tyk2 kinase domain (DH1)) | inhibition at 10 µM (JAK2 kinase domain (JH1)) | IC50 [2] | IC50 [3] | SMILES
< 0.2 nM | < 50% | < 50% | < 100 nM | > 2500 nM | CNc1cc(Nc2cccn(-c3cnc(C(=O)N(C)C)cn3)c2=O)nc2c(C(=O)NC3CCC3)cnn12 [I-122]
< 0.2 nM | < 50% | < 50% | < 100 nM | > 50000 nM | CNc1cc(Nc2cccn(-c3cccc(C(C)(C)O)n3)c2=O)nc2c(C(=O)N[C@H]3C[C@H]3F)cnn12 [I-123]
< 0.2 nM | < 50% | < 50% | < 100 nM | > 50000 nM | CNc1cc(Nc2cccn(-c3cnc(C(=O)N(C)C)cn3)c2=O)nc2c(C(=O)N[C@H]3C[C@H]3F)cnn12 [I-126]
< 0.2 nM | < 50% | < 50% | < 100 nM | > 12500 nM | CNc1cc(Nc2cccn(-c3cnc(C(=O)N(C)C)cn3)c2=O)nc2c(C(=O)NC3CC3)cnn12 [I-127, N-cyclopropyl-5-((1-(5-(dimethylcarbamoyl)pyrazin-2-yl)-2-oxo-1,2-dihydropyridin-3-yl)amino)-7-(methylamino)pyrazolo[1,5-a]pyrimidine-3-carboxamide]
1 to 10 nM | < 50% | < 50% | < 100 nM | > 12500 nM | CNc1cc(Nc2cccn(-c3cccc(C)n3)c2=O)nc2c(C(=O)N[C@H]3C[C@H]3F)cnn12 [I-131]
< 0.2 nM | < 50% | < 50% | < 100 nM | > 2500 nM | CNc1cc(Nc2cccn(-c3ccc(F)cc3)c2=O)nc2c(C(=O)N[C@H]3C[C@H]3F)cnn12 [I-132]
< 0.2 nM | < 50% | < 50% | < 100 nM | > 12500 nM | CCn1cc(Cl)cc(Nc2cc(NC)n3ncc(C(=O)NC4CC4)c3n2)c1=O [I-133, 5-((5-chloro-1-ethyl-2-oo-1,2-dihydropyridin-3-yl)amino)-N-cyclopropyl-7-(methylamino)pyrazolo[1,5-a]pyrimidine-3-carboxamide]
< 0.2 nM | < 50% | < 50% | < 100 nM | > 2500 nM | CNc1cc(Nc2cccn(-c3ccc(N4CCOCC4)cc3)c2=O)nc2c(C(=O)N[C@H]3C[C@H]3F)cnn12 [I-135]
< 0.2 nM | < 50% | < 50% | < 100 nM | > 2500 nM | CNc1cc(Nc2cccn(-c3cc(C)n(C)n3)c2=O)nc2c(C(=O)NC3CCC3)cnn12 [I-136]
< 0.2 nM | < 50% | < 50% | < 100 nM | > 50000 nM | CNc1cc(Nc2cccn(-c3cc(C)n(C)n3)c2=O)nc2c(C(=O)N[C@H]3C[C@H]3F)cnn12 [I-137]
< 0.2 nM | < 50% | < 50% | < 100 nM | > 50000 nM | CNc1cc(Nc2cccn(-c3cc(C)n(C)n3)c2=O)nc2c(C(=O)NC3CC3)cnn12 [I-138]
< 0.2 nM | < 50% | < 50% | < 100 nM | > 50000 nM | CNc1cc(Nc2cccn(-c3ccn(C)n3)c2=O)nc2c(C(=O)NC3CCC3)cnn12 [I-139]
< 0.2 nM | < 50% | < 50% | < 100 nM | > 50000 nM | CNc1cc(Nc2cccn(-c3ccc(C)nn3)c2=O)nc2c(C(=O)NC3CCC3)cnn12 [I-141]
< 0.2 nM | < 50% | < 50% | 100 to 500 nM | > 50000 nM | CNc1cc(Nc2cccnc2OC(C)C)nc2c(C(=O)NC3CCC3)cnn12 [I-145]
< 0.2 nM | < 50% | < 50% | < 100 nM | > 50000 nM | CNc1cc(Nc2cccnc2OC(C)C)nc2c(C(=O)N[C@H]3C[C@H]3F)cnn12 [I-147]
< 0.2 nM | < 50% | < 50% | < 100 nM | > 50000 nM | CNc1cc(Nc2cccnc2OC(F)F)nc2c(C(=O)NC3CCC3)cnn12 [I-151]
< 0.2 nM | < 50% | 50 to 70% | < 100 nM | > 12500 nM | CNc1cc(Nc2cccnc2OC(F)F)nc2c(C(=O)N[C@H]3C[C@H]3F)cnn12 [I-153]
0.2 to 1 nM | < 50% | 50 to 70% | < 100 nM | > 12500 nM | CNc1cc(Nc2cccnc2OC(F)F)nc2c(C(=O)NC3CC3)cnn12 [I-154]

SMILES | Kd [1] | inhibition at 10 µM (Tyk2 kinase domain (DH1)) | inhibition at 10 µM (JAK2 kinase domain (JH1)) | IC50 [2] | IC50 [3]
CNc1cc(Nc2cccn(-c3cnc(C(C)(C)O)cn3)c2=O)nc2c(C(=O)NC3CCC3)cnn12 [I-95] | < 0.2 nM | < 50% | < 50% | < 100 nM | > 50000 nM
